Results published in patent US11091479B2, “Triazolopyridin-3-ones or their salts and pharmaceutical compositions comprising the same” (YUHAN CORPORATION, priority 2018, dated 2021).
Where a name gives a salt, the structure may show the parent alone.

What was measured:
Format in all cases: biochemical
[1] = biological target: T1, recombinant human DAO (diamine oxidase) (Homo sapiens, UniProt P19801); assay: Activity on recombinant human DAO, method similar to VAP-1 assay, 1 mM putrescine substrate; details: read-out: Inhibitory Activity (IC50, nM) DAO
T1 construct: purchased R&D systems
T1 sequence (P19801 20-751): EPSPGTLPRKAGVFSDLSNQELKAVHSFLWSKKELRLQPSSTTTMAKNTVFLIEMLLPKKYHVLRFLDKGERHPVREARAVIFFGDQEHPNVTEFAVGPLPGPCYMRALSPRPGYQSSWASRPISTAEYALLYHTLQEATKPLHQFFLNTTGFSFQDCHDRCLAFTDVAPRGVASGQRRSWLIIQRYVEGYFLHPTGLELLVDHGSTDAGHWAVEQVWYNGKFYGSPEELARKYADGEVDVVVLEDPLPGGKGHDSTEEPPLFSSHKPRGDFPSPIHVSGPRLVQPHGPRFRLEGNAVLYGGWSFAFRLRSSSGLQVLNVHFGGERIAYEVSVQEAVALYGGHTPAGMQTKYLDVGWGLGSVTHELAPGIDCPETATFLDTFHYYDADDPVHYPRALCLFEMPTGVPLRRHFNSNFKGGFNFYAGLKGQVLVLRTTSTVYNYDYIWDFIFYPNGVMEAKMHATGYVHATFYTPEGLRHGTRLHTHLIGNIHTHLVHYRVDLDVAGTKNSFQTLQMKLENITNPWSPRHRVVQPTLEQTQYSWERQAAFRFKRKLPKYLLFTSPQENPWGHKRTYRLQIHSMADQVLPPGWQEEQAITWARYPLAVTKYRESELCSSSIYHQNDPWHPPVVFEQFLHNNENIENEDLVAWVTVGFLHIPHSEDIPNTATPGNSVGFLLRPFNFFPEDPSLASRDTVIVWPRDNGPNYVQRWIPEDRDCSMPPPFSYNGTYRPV
Outline: (§1)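 Amplex Red/HRP-coupled H2O2 fluorescence assay run as for VAP-1: enzyme in 50 mM sodium phosphate pH 7.4 preincubated with compound 30 min at 37 °C, then substrate (putrescine for DAO, benzylamine for MAO-B, tyramine for MAO-A) added with 200 uM Amplex Red, 1 U/mL HRP. Signal rate over 1-2 h; IC50 from 4-parameter logistic fit.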

[2] = biological target: T2, recombinant human MAO-A (monoamine oxidase-A) (Homo sapiens, UniProt P21397); assay: Activity on recombinant human MAO-A, method similar to VAP-1 assay, 0.5 mM tyramine substrate; details: read-out: Inhibitory Activity (IC50, nM) MAO-A
T2 construct: purchased Sigma-Aldrich
T2 sequence (P21397 1-527): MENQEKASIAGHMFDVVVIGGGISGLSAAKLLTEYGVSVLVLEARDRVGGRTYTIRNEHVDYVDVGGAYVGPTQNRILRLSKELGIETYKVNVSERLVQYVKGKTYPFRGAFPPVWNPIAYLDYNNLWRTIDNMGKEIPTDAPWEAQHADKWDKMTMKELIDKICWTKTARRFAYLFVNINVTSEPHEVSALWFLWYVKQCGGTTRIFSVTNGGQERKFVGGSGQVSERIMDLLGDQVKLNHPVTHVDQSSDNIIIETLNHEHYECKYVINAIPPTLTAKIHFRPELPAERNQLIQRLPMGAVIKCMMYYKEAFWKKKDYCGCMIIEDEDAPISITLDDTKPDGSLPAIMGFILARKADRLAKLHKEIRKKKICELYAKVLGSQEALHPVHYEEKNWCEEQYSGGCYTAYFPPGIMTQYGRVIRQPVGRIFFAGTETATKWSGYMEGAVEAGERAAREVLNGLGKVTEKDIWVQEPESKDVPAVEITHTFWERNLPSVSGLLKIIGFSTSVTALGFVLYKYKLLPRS
Outline: as §1

recombinant human VAP-1 = biological target: T3, recombinant human VAP-1 (Homo sapiens, UniProt Q16853); assay: Activity on recombinant human VAP-1, HRP-coupled Amplex Red hydrogen peroxide assay, benzylamine substrate; details: 30 min incubation at 37° C., 1 mM benzylamine, read-out: Inhibitory Activity (IC50, nM) human VAP-1
T3 construct: purchased R&D systems
T3 sequence (Q16853 1-763): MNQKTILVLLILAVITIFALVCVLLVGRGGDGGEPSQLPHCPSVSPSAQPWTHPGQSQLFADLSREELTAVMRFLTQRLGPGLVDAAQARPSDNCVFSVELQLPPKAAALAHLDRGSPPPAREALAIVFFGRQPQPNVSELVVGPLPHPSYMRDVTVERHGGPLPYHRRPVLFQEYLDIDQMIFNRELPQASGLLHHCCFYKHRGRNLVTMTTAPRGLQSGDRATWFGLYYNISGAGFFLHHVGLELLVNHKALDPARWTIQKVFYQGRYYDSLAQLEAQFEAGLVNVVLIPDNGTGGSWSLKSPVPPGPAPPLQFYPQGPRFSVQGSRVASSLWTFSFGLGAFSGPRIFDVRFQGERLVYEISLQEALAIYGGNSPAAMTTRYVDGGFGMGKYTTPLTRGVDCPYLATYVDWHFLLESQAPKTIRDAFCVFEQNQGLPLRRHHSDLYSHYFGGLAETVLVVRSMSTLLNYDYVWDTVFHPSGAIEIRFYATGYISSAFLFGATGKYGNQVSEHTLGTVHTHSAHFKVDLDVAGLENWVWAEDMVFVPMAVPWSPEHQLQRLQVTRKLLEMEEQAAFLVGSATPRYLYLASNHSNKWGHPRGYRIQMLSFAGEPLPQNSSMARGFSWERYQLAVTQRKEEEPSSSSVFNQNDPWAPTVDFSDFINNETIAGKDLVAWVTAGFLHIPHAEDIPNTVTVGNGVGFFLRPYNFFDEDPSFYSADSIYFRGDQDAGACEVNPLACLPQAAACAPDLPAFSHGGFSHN
Outline: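 Recombinant human VAP-1 in 50 mM sodium phosphate pH 7.4 preincubated with compound for 30 min at 37 °C, then 1 mM benzylamine, 200 uM Amplex Red and 1 U/mL HRP added. Resorufin fluorescence (ex 544/em 590 nm) followed over 1-2 h; % signal-rate decrease vs DMSO control, 8-point 4-parameter fit for IC50.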

[3] = biological target: T4, recombinant human MAO-B (monoamine oxidase-B) (Homo sapiens, UniProt P27338); assay: Activity on recombinant human MAO-B, method similar to VAP-1 assay, 1 mM benzylamine substrate; details: read-out: Inhibitory Activity (IC50, nM) MAO-B
T4 construct: purchased Sigma-Aldrich
T4 sequence (P27338 1-520): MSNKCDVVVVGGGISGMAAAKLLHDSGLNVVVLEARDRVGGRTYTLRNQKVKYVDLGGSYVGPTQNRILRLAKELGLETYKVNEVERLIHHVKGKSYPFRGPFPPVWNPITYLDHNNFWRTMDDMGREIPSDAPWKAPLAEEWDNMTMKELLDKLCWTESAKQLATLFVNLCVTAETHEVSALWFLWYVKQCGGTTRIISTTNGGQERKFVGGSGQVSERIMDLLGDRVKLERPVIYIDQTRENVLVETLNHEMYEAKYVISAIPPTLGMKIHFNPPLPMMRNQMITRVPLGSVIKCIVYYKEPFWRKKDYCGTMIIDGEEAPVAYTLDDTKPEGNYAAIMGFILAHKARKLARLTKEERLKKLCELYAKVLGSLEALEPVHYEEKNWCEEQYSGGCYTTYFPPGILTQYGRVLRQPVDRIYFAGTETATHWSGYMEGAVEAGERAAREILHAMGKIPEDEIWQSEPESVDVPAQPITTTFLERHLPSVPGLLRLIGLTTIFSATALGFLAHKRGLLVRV
Outline: as §1

IC50 [1] | IC50 [2] | IC50 (recombinant human VAP-1) | IC50 [3] | Structure (SMILES)
0.2 nM | > 100000 nM | 12 nM | 37 nM | NC/C(=C\F)Cn1nc2ccc(-c3ccc(C(F)(F)F)nc3)cn2c1=O [Example 9, 2-[(2E)-2-(aminomethyl)-3-fluoroprop-2-en-1-yl]-6-[6-(trifluoromethyl)pyridin-3-yl][1,2,4]triazolo[4,3-a]pyridin-3(2H)-one hydrochloride]
< 100 nM | > 100000 nM | 6.2 nM | > 10000 nM | NC/C(=C\F)Cn1nc2ccc(-c3ccc(S(=O)(=O)N4CCOCC4)cc3)cn2c1=O [Example 4, 2-[(2E)-2-(aminomethyl)-3-fluoroprop-2-en-1-yl]-6-[4-(morpholin-4-ylsulfonyl)phenyl][1,2,4]triazolo[4,3-a]pyridin-3(2H)-one trifluoroacetate]
1.1 nM | 14000 nM | 3.4 nM | < 10 nM | NC/C(=C\F)Cn1nc2ccc(-c3ccc4c(c3)OCO4)cn2c1=O [Example 12, 2-[(2E)-2-(aminomethyl)-3-fluoroprop-2-en-1-yl]-6-(1,3-benzodioxol-5-yl)[1,2,4]triazolo[4,3-a]pyridin-3(2H)-one hydrochloride]
1 nM | > 100000 nM | 2 nM | > 100000 nM | NC/C(=C\F)Cn1nc2cc(C3=CCNCC3)ccn2c1=O [Example 34, 2-[(2E)-2-(aminomethyl)-3-fluoroprop-2-en-1-yl]-7-(1,2,3,6-tetrahydropyridin-4-yl)[1,2,4]triazolo[4,3-a]pyridin-3(2H)-one dihydrochloride]
5 nM | > 100000 nM | 0.3 nM | 61 nM | COc1ccc(-c2ccn3c(=O)n(C/C(=C/F)CN)nc3c2)cn1 [Example 31, 2-[(2E)-2-(aminomethyl)-3-fluoroprop-2-en-1-yl]-7-(6-methoxypyridin-3-yl)[1,2,4]triazolo[4,3-a]pyridin-3(2H)-one hydrochloride]
0.3 nM | 26000 nM | 0.1 nM | 190 nM | NC/C(=C\F)Cn1nc2cc(-c3ccc4cn[nH]c4c3)ccn2c1=O [Example 37, 2-[(2E)-2-(aminomethyl)-3-fluoroprop-2-en-1-yl]-7-(1H-indazol-6-yl)[1,2,4]triazolo[4,a]pyridin-3(2H)-one hydrochloride]
6300 nM | > 100000 nM | 1 nM | 2500 nM | Cn1cc(C#Cc2ccn3c(=O)n(CC(CN)=C(F)F)nc3c2)cn1 [Example 56, 2-[2-(aminomethyl)-3,3-difluoro-allyl]-7-[2-(1-methylpyrazol-4-yl)ethynyl]-[1,2,4]triazolo[4,3-a]pyridin-3-one trifluoroacetate]
1.3 nM | 6800 nM | 0.3 nM | 730 nM | NC/C(=C\F)Cn1nc2cc(-c3ccc4c(c3)NC(=O)OC4)ccn2c1=O [Example 41, 7-[2-[(2E)-2-(aminomethyl)-3-fluoroprop-2-en-1-yl]-3-oxo-2,3-dihydro[1,2,4]triazolo[4,3-a]pyridin-7-yl]-1,4-dihydro-2H-3,1-benzoxazin-2-one hydrochloride]
400 nM | > 100000 nM | 1 nM | < 10 nM | CN1CCOc2cc(-c3ccn4c(=O)n(C/C(=C/F)CN)nc4c3)ccc21 [Example 44, 2-[(2E)-2-(aminomethyl)-3-fluoroprop-2-en-1-yl]-7-(4-methyl-3,4-dihydro-2H-1,4-benzoxazin-7-yl)[1,2,4]triazolo[4,3-a]pyridin-3(2H)-one hydrochloride]
150 nM | > 100000 nM | 0.2 nM | 14000 nM | NCC(Cn1nc2cc(C#Cc3ccc4c(c3)CCC(=O)N4)ccn2c1=O)=C(F)F [Example 62, 6-[2-[2-[2-(aminomethyl)-3,3-difluoro-allyl]-3-oxo-[1,2,4]triazolo[4,3-a]pyridin-7-yl]ethynyl]-3,4-dihydro-1H-quinolin-2-one trifluoroacetate]
< 100 nM | > 100000 nM | 4.8 nM | 15 nM | NC/C(=C\F)Cn1nc2ccc(-c3ccc4c(c3)OCCO4)cn2c1=O [Example 13, 2-[(2E)-2-(aminomethyl)-3-fluoroprop-2-en-1-yl]-6-(2,3-dihydro-1,4-benzodioxin-6-yl)[1,2,4]triazolo[4,3-a]pyridin-3(2H)-one trifluoroacetate]
9000 nM | > 100000 nM | 1.8 nM | 2700 nM | NCC(Cn1nc2cc(C#Cc3ccc4c(c3)NCCO4)ccn2c1=O)=C(F)F [Example 59, 2-[2-(aminomethyl)-3,3-difluoro-allyl]-7-[2-(3,4-dihydro-2H-1,4-benzoxazin-6-yl)ethynyl]-[1,2,4]triazolo[4,3-a]pyridin-3-one ditrifluoroacetate]
9.1 nM | 18000 nM | 0.2 nM | 220 nM | NC/C(=C\F)Cn1nc2cc(-c3ccc(-c4ccon4)cc3)ccn2c1=O [Example 25, 2-[(2E)-2-(aminomethyl)-3-fluoroprop-2-en-1-yl]-7-[4-(1,2-oxazol-3-yl)phenyl][1,2,4]triazolo[4,3-a]pyridin-3(2H)-one hydrochloride]
